One assay relates to HeLa-GFP cells. As to the kind of experiment: HeLa-GFP fluorometric cytotoxicity assay. Particulars: for Percent-GFP-fluorescence after incubation with test compounds, HeLa-GFP (2 μg/ml) / Percent-GFP-fluorescence after incubation with test compounds, HeLa-GFP (20 μg/ml): 18 h incubation, relative to untreated (DMSO) cells.
The test system of the next assay is E. coli-GFP. Nature of the assay: Toxicity assay with GFP-expressing E. coli. Particulars: for Percent-GFP-fluorescence after incubation with test compounds, E. coli-GFP (20 μg/ml): 10 h incubation, relative to untreated bacteria.
The subject of assay [1] is M. avium-GFP (strain MAC104). Nature of the assay: Toxicity assay with GFP-expressing M. avium. Particulars: for Percent-GFP-fluorescence after incubation with test compounds, M. avium-GFP (20 μg/ml): 18 h incubation, relative to untreated bacteria.
Experimental: (§1) E. coli-GFP cells were grown in LB broth media while the MAC104 M. avium strain was grown in 7H9-ADC media.
(§2) Toxicity assays with GFP-expressing bacteria. E. coli was transformed with a GFP-expression plasmid that also confers tetracycline resistance was kindly provided by Dr. David Schneider (Elrod-Erickson et al., 2000). […] Both bacterial strains were grown and selected based on antibiotic resistance and GFP expression. All toxicity assays were performed using the plates and fluorometric parameters described in the previous section. Bacterial cell suspensions were seeded in a final volume of 100 μl at an optical density of 0.05 and 0.25 at 650 nm, for E. coli-GFP and M. avium-GFP, respectively. After exposure to the test compounds, assay plates were incubated at 37° C. in a humid environment to prevent dehydration in the wells. Unlike the HeLa-GFP assays, reading were performed without removing the supernatants to avoid loss of cells. Several untreated wells containing bacteria and media were used to determine the maximum level of fluorescence. Several wells containing media alone (no bacteria) were included in each assay to remove background fluorescence.
(§3) Data analysis. All compounds, including controls, were screened in triplicate. The average of the three wells that were used for the removal of the background fluorescence (wells containing water for the HeLa-GFP assays and wells containing media alone for bacteria) was subtracted from each individual well. The mean of these triplicate values for each compound was then obtained.
Setting [2] is: loss of GFP signal, Table 1 screen.

Experimental for E. coli-GFP: as §1, §2, §3
Experimental for HeLa-GFP cells: Cell culture. HeLa-GFP cells were cultured in DMEM media supplemented with 10% heat-inactivated newborn calf serum as previously described (Montoya et al., 2004). Stock cultures were prewashed twice with PBS before the treatment of trypsin for cell resuspension and subsequently re-plated at the concentration of 4,000 cells/well.
HeLa-GFP fluorometric cytotoxicity assay. All cell lines were seeded in clear-bottomed 96-well assay plates (3603, Costar, Corning Inc., Corning, N.Y.) in order to minimized background fluorescence. HeLa cells were grown in a total volume of 0.2 ml of medium and incubated overnight for proper cell attachment. The quinone compounds were then added to each well (in triplicate) and then incubated for a period of 18 hr. For the determination of fluorescence, the assay plates were then read using the Fluoroskan Ascent F1 fluorometer (Thermo Electron Corp.) set at the excitation and emission parameters of 485 and 518 nm, respectively. Since the HeLa-GFP cell line is adherent, the fluorometer was set to read from the bottom of the plate for closer proximity to the cells. Before the readings were performed, all supernatant media was removed to avoid any background interference and thus enhancing the sensitivity of the optical readings. For calibration purposes, three untreated control wells were used to determine the maximum level of fluorescence (100%). […] As a cytolysis control (complete loss of fluorescence), three wells containing cells were exposed to 0.2 ml of deionized water. These controls were then used to calculate the percent loss of GFP signal after compound exposure as determined by comparison with control wells containing cells that were not exposed to the chemical agent (see data analysis below).
Data analysis. All compounds, including controls, were screened in triplicate. The average of the three wells that were used for the removal of the background fluorescence (wells containing water for the HeLa-GFP assays and wells containing media alone for bacteria) was subtracted from each individual well. The mean of these triplicate values for each compound was then obtained. These mean values were then divided by the average obtained for maximum fluorescence (cells not treated with compound) and then multiplied by 100 to obtain the percentage values as shown in Table 1.

Turning to `O=C1C=CC(=O)c2c(O)cccc21` [Compound Q2], in the assay with HeLa-GFP cells, the “Percent-GFP-fluorescence after incubation with test compounds, HeLa-GFP (2 μg/ml)” value (“Percent-GFP-fluorescence … (2 μg/ml)” for short) is recorded as 14.0% and the “Percent-GFP-fluorescence after incubation with test compounds, HeLa-GFP (20 μg/ml)” value (shortened to “Percent-GFP-fluorescence … HeLa-GFP (20 μg/ml)”) is on record as 29.0%. Moreover, the “Percent-GFP-fluorescence after incubation with test compounds, E. coli-GFP (20 μg/ml)” value with E. coli-GFP came to 111.0%. The “Percent-GFP-fluorescence after incubation with test compounds, M. avium-GFP (20 μg/ml)” value in assay [1] is 72.0%.

As for `CC(C)=CCC1=C(O)C(=O)c2ccccc2C1=O` [Compound Q4, lapachol, reference compound], in the assay on HeLa-GFP cells, the “Percent-GFP-fluorescence … (2 μg/ml)” value is reported as 70.0% and the “Percent-GFP-fluorescence … HeLa-GFP (20 μg/ml)” value is listed as 3.0%. Moreover, the “Percent-GFP-fluorescence after incubation with test compounds, E. coli-GFP (20 μg/ml)” value in the assay with E. coli-GFP came out at 56.0%. For the same compound, in assay [1], the “Percent-GFP-fluorescence after incubation with test compounds, M. avium-GFP (20 μg/ml)” value came out at 26.0%.

`CC1=CC(=O)c2ccccc2C1=O` [Compound Q5, menadione, reference compound]: in the assay on HeLa-GFP cells, the “Percent-GFP-fluorescence … (2 μg/ml)” value is 13.0% and the “Percent-GFP-fluorescence … HeLa-GFP (20 μg/ml)” value was found to be 22.0%. Besides, the “toxicity to HeLa-GFP cells (in words)” value with HeLa-GFP cells (setting [2]) was “highly toxic”. Further, in the assay on E. coli-GFP, the “Percent-GFP-fluorescence after incubation with test compounds, E. coli-GFP (20 μg/ml)” value stood at 58.0%. Further, in the assay on E. coli-GFP (setting [2]), the “toxicity to E. coli (in words)” value was “highly toxic”. Moreover, the “Percent-GFP-fluorescence after incubation with test compounds, M. avium-GFP (20 μg/ml)” value in assay [1] is recorded as 69.0%. Also, the “toxicity to M. avium (in words)” value in assay [1] (setting [2]) was “highly toxic”.

For the compound `O=C1C(c2ccccc2)=C(c2ccccc2)C(=O)c2ccccc21` [Compound Q6], in the assay on HeLa-GFP cells, the “Percent-GFP-fluorescence … (2 μg/ml)” value is 78.0% and the “Percent-GFP-fluorescence … HeLa-GFP (20 μg/ml)” value is given as 20.0%. Also, the “Percent-GFP-fluorescence after incubation with test compounds, E. coli-GFP (20 μg/ml)” value in the assay on E. coli-GFP is reported as 105.0%. The “Percent-GFP-fluorescence after incubation with test compounds, M. avium-GFP (20 μg/ml)” value in assay [1] turned out to be 55.0%.

Regarding `O=C1C=C(c2ccccc2)C(=O)c2ccccc21` [Compound Q7], in the assay with HeLa-GFP cells, the “Percent-GFP-fluorescence … (2 μg/ml)” value is 13.0% and the “Percent-GFP-fluorescence … HeLa-GFP (20 μg/ml)” value was 25.0%. Further, the “Percent-GFP-fluorescence after incubation with test compounds, E. coli-GFP (20 μg/ml)” value in the assay with E. coli-GFP is given as 89.0%. Further, in assay [1], the “Percent-GFP-fluorescence after incubation with test compounds, M. avium-GFP (20 μg/ml)” value was 35.0%.

For the compound `CCCC1=C(CCC)C(=O)c2ccccc2C1=O` [Compound Q8], in the assay with HeLa-GFP cells, the “Percent-GFP-fluorescence … (2 μg/ml)” value came to 89.0% and the “Percent-GFP-fluorescence … HeLa-GFP (20 μg/ml)” value was determined as 16.0%. In addition, the “Percent-GFP-fluorescence after incubation with test compounds, E. coli-GFP (20 μg/ml)” value in the assay on E. coli-GFP turned out to be 134.0%. Besides, in assay [1], the “Percent-GFP-fluorescence after incubation with test compounds, M. avium-GFP (20 μg/ml)” value worked out at 102.0%.

With `CCCCCC1=C(C)C(=O)c2ccccc2C1=O` [Compound Q9], in the assay on HeLa-GFP cells, the “Percent-GFP-fluorescence … (2 μg/ml)” value was determined as 90.0% and the “Percent-GFP-fluorescence … HeLa-GFP (20 μg/ml)” value stood at 31.0%. The “Percent-GFP-fluorescence after incubation with test compounds, E. coli-GFP (20 μg/ml)” value with E. coli-GFP was 115.0%. In addition, the “Percent-GFP-fluorescence after incubation with test compounds, M. avium-GFP (20 μg/ml)” value in assay [1] is listed as 85.0%.

As for `CCCCCC1=CC(=O)c2ccccc2C1=O` [Compound Q10], in the assay on HeLa-GFP cells, the “Percent-GFP-fluorescence … (2 μg/ml)” value is 84.0% and the “Percent-GFP-fluorescence … HeLa-GFP (20 μg/ml)” value came out at 52.0%. Besides, the “Percent-GFP-fluorescence after incubation with test compounds, E. coli-GFP (20 μg/ml)” value in the assay on E. coli-GFP is 110.0%. The “Percent-GFP-fluorescence after incubation with test compounds, M. avium-GFP (20 μg/ml)” value in assay [1] is on record as 81.0%.

Consider `CCCCCCC1=CC(=O)c2ccccc2C1=O` [Compound Q11], for which, in the assay on HeLa-GFP cells, the “Percent-GFP-fluorescence … (2 μg/ml)” value turned out to be 84.0% and the “Percent-GFP-fluorescence … HeLa-GFP (20 μg/ml)” value turned out to be 14.0%. The “Percent-GFP-fluorescence after incubation with test compounds, E. coli-GFP (20 μg/ml)” value in the assay with E. coli-GFP turned out to be 98.0%. In addition, the “Percent-GFP-fluorescence after incubation with test compounds, M. avium-GFP (20 μg/ml)” value in assay [1] was found to be 69.0%.

Consider `CCCCCCCC1=CC(=O)c2ccccc2C1=O` [Compound Q12], for which, in the assay on HeLa-GFP cells, the “Percent-GFP-fluorescence … (2 μg/ml)” value was 81.0% and the “Percent-GFP-fluorescence … HeLa-GFP (20 μg/ml)” value stood at 14.0%. Moreover, in the assay with E. coli-GFP, the “Percent-GFP-fluorescence after incubation with test compounds, E. coli-GFP (20 μg/ml)” value was found to be 82.0%. Besides, the “Percent-GFP-fluorescence after incubation with test compounds, M. avium-GFP (20 μg/ml)” value in assay [1] turned out to be 66.0%.

On to `CCCC1=C(CC)C(=O)c2ccccc2C1=O` [Compound Q13], for which, in the assay on HeLa-GFP cells, the “Percent-GFP-fluorescence … (2 μg/ml)” value turned out to be 89.0% and the “Percent-GFP-fluorescence … HeLa-GFP (20 μg/ml)” value came out at 21.0%. Further, the “Percent-GFP-fluorescence after incubation with test compounds, E. coli-GFP (20 μg/ml)” value in the assay with E. coli-GFP was 93.0%. In assay [1], the “Percent-GFP-fluorescence after incubation with test compounds, M. avium-GFP (20 μg/ml)” value is reported as 72.0%.

On to `O=C1C=C(CCCO)C(=O)c2ccccc21` [Compound Q14], for which, in the assay on HeLa-GFP cells, the “Percent-GFP-fluorescence … (2 μg/ml)” value turned out to be 83.0% and the “Percent-GFP-fluorescence … HeLa-GFP (20 μg/ml)” value is reported as 29.0%. In addition, the “Percent-GFP-fluorescence after incubation with test compounds, E. coli-GFP (20 μg/ml)” value in the assay on E. coli-GFP is reported as 90.0%. For the same compound, the “Percent-GFP-fluorescence after incubation with test compounds, M. avium-GFP (20 μg/ml)” value in assay [1] worked out at 58.0%.

For the compound `CCOC(=O)C1=C(CC)C(=O)c2ccccc2C1=O` [Compound Q15], in the assay with HeLa-GFP cells, the “Percent-GFP-fluorescence … (2 μg/ml)” value came out at 85.0% and the “Percent-GFP-fluorescence … HeLa-GFP (20 μg/ml)” value came out at 53.0%. In the assay on E. coli-GFP, the “Percent-GFP-fluorescence after incubation with test compounds, E. coli-GFP (20 μg/ml)” value was found to be 80.0%. In assay [1], the “Percent-GFP-fluorescence after incubation with test compounds, M. avium-GFP (20 μg/ml)” value was 40.0%.

In the case of `CCCC1=CC(=O)c2c(OC)cccc2C1=O` [Compound Q16], in the assay on HeLa-GFP cells, the “Percent-GFP-fluorescence … (2 μg/ml)” value is on record as 78.0% and the “Percent-GFP-fluorescence … HeLa-GFP (20 μg/ml)” value is given as 10.0%. Further, the “Percent-GFP-fluorescence after incubation with test compounds, E. coli-GFP (20 μg/ml)” value with E. coli-GFP is recorded as 127.0%. The “Percent-GFP-fluorescence after incubation with test compounds, M. avium-GFP (20 μg/ml)” value in assay [1] is recorded as 105.0%.

For the compound `CCCCCCC1=CC(=O)c2c(OC)cccc2C1=O` [Compound Q17], in the assay on HeLa-GFP cells, the “Percent-GFP-fluorescence … (2 μg/ml)” value amounted to 80.0% and the “Percent-GFP-fluorescence … HeLa-GFP (20 μg/ml)” value came out at 18.0%. For the same compound, the “Percent-GFP-fluorescence after incubation with test compounds, E. coli-GFP (20 μg/ml)” value in the assay on E. coli-GFP amounted to 115.0%. Moreover, in assay [1], the “Percent-GFP-fluorescence after incubation with test compounds, M. avium-GFP (20 μg/ml)” value is recorded as 100.0%.

Turning to `CCCCCCCC1=CC(=O)c2c(OC)cccc2C1=O` [Compound Q18], in the assay on HeLa-GFP cells, the “Percent-GFP-fluorescence … (2 μg/ml)” value turned out to be 88.0% and the “Percent-GFP-fluorescence … HeLa-GFP (20 μg/ml)” value is listed as 22.0%. In addition, in the assay with E. coli-GFP, the “Percent-GFP-fluorescence after incubation with test compounds, E. coli-GFP (20 μg/ml)” value was 112.0%. In assay [1], the “Percent-GFP-fluorescence after incubation with test compounds, M. avium-GFP (20 μg/ml)” value amounted to 127.0%.

With `CCCC1=C(CCC)C(=O)c2c(OC)cccc2C1=O` [Compound Q19], in the assay on HeLa-GFP cells, the “Percent-GFP-fluorescence … (2 μg/ml)” value is 78.0% and the “Percent-GFP-fluorescence … HeLa-GFP (20 μg/ml)” value is 38.0%. Besides, in the assay with E. coli-GFP, the “Percent-GFP-fluorescence after incubation with test compounds, E. coli-GFP (20 μg/ml)” value came to 99.0%. The “Percent-GFP-fluorescence after incubation with test compounds, M. avium-GFP (20 μg/ml)” value in assay [1] is recorded as 73.0%.

Regarding `O=C1c2ccccc2C(=O)C2(c3ccccc3)OC12c1ccccc1` (stereo not shown) [Compound Q20], in the assay with HeLa-GFP cells, the “Percent-GFP-fluorescence … (2 μg/ml)” value is 28.0% and the “Percent-GFP-fluorescence … HeLa-GFP (20 μg/ml)” value is given as 29.0%. For the same compound, the “Percent-GFP-fluorescence after incubation with test compounds, E. coli-GFP (20 μg/ml)” value in the assay with E. coli-GFP is given as 86.0%. Also, the “Percent-GFP-fluorescence after incubation with test compounds, M. avium-GFP (20 μg/ml)” value in assay [1] is 77.0%.

With `CC12OC1(c1ccccc1)C(=O)c1ccccc1C2=O` (stereo not shown) [Compound Q21], in the assay with HeLa-GFP cells, the “Percent-GFP-fluorescence … (2 μg/ml)” value was found to be 57.0% and the “Percent-GFP-fluorescence … HeLa-GFP (20 μg/ml)” value stood at 23.0%. Besides, the “Percent-GFP-fluorescence after incubation with test compounds, E. coli-GFP (20 μg/ml)” value in the assay with E. coli-GFP was 122.0%. For the same compound, the “Percent-GFP-fluorescence after incubation with test compounds, M. avium-GFP (20 μg/ml)” value in assay [1] came out at 57.0%.

Source of the values: patent US20080020421A1, “METHODS OF SCREENING AGENTS FOR CYTOTOXIC AND ANTIMICROBIAL ACTIVITY” (priority 2006, published 2008).
